Test results: US20060258748A1 (Chevron U.S.A. Inc., priority 2005, published 2006)

Tests used:
[1] = tested on: NMDA receptor; assay: [3H]MK-801 binding assay, NMDA receptors in guinea pig brain membranes; details: for Relative affinity: compared to that of Memantine
Method: Hartley guinea pigs were sacrificed, and their brains were quickly removed and weighed. The brains then were homogenized in 50 mM Tris HCl buffer, pH 7.7, using a Polytron homogenizer. The homogenate was centrifuged at 40,000×g for 15 min, rehomogenized, and centrifuged again. The final pellet was resuspended in Tris-HCl, pH 7.7, at a final concentration of 6.67 mg original wet weight of tissue/ml. […] The samples were then filtered through glass fiber filters on a Tomtec cell harvester. The filters were washed 3 times with 3 ml of cold buffer. Filters were dried overnight and counted next day on a Wallac Betaplate Reader.
The binding experiments were conducted as follows. […] For each compound, graphs were prepared containing individual competition curves obtained for that compound. IC50 values and Hill coefficients were calculated using the program Prism. Ki values were calculated using the Chang Prusoff transformation: Ki═IC50/(1+L/Kd)
where L is radioligand concentration and Kd is the binding affinity of the radioligand, as determined previously by saturation analysis. […] In each experiment, one standard compound was simultaneously run on each 96 well plate.

[2] = Dissolving compounds for 10 mM stock solutions; format: physicochemical; details: molecusol, acetic acid, propylene glycol, then hot water
Method: Following assay establishment, the test compounds were tested for binding affinities. The concentrations selected for the experiments were chosen according to what was found for memantine in our assay. The first task was to dissolve the compounds and make up the 10 mM stock solution for further experiments. Those compounds that were made into salt format were easy to dissolve in deionized water, but the other compounds were difficult to bring into solution. Several “assay friendly” solvents have been tried, such as molecusol, acetic acid and propylene glycol followed by putting the vial into hot water.

[3] = tested on: NMDA receptor; assay: Whole-cell voltage-clamp recording of NMDA evoked currents in hypocretin neurons of hypothalamic slices; format: cell-based, mouse; details: washout of the compound

SMILES	Relative affinity [1]	solubility in assay friendly solvents [2]	further results
OC12CC3CC4C1CC1CC2C(C3)C4(O)C1 [MDT-12, 1,6-dihydroxydiamantane]	0.077	went into solution	–
O=C(O)C12CC3CC4C1CC1CC2C(C3)C4(C(=O)O)C1 [MDT-19, 1,6-diamantane dicarboxylic acid]	0.091	did not go into solution, or came out with time	–
OC12CC3CC4C5CC(CC41)CC2C5C3 [MDT-10, 1-hydroxydiamantane]	0.015	went into solution	–
O=C(O)C12CC3CC4C5CC(CC41)CC2C5C3 [MDT-17, 1-diamantane carboxylic acid]	0.063	did not go into solution, or came out with time	–
O=C(O)C12CC3C4CC5(C(=O)O)CC3C(C1)C(C5)C4C2 [MDT-20, 4,9-diamantane dicarboxylic acid]	–	did not go into solution, or came out with time	–
CC12CC3CC4C1CC1CC2C(N)(C3)C4(C)C1 (stereo not drawn) [MDT-23, 1,6-dimethyl-2-aminodiamantane]	–	–	reversibility of inhibition of NMDA evoked currents upon washout [3]: not reversible
CC12CC3CC4C1CC1CC4[C@](N)(C3)C2C1 [MDT-22, 1-methyl-7-aminodiamantane]	–	–	reversibility of inhibition of NMDA evoked currents upon washout [3]: reversible
CC12CC3CC(C)(C1)CC(N)(C3)C2 [Memantine, 1-amino-3,5-dimethyladamantane, reference compound]	1	–	Ki ([1]; [3H]MK-801 1 nM, guinea pig brain membranes, read-out: Ki at the NMDA site (standard compounds)): 602 ± 27 nM
OC12CC3CC4C1CC1CC4C(O)(C3)C2C1 [MDT-13, 1,7-dihydroxydiamantane]	–	went into solution	–

More lines, main results first:

Relative affinity [1]	solubility in assay friendly solvents [2]	SMILES	further results
0.017	–	NC12CC3C4CC5CC3C(C1)C(C5)C4C2 [MDT-3, 4-aminodiamantane]	–
–	went into solution	OC12CC3C4CC5CC3C(C1)C(C5)C4C2 [MDT-11, 4-diamantanol]	–
0.094	–	NC12CC3CC4C5CC(CC41)CC2C5C3 [MDT-2, 1-aminodiamantane]	–
–	went into solution	OC12CC3C4CC5C6CC7(O)CC5C(C4C1)C(C2)(C7)C36 [MDT-15, 9,15-dihydroxytriamantane]	–
–	went into solution	OC12CC3C4CC5(O)CC3C(C1)C(C5)C4C2 [MDT-14, 4,9-dihydroxydiamantane]	–
0.006	–	NC12CC3CC4C1CC1CC2C(C3)C4(N)C1 [MDT-4, 1,6-diaminodiamantane]	–
0.002	–	NC12CC3C4CC5(N)CC3C(C1)C(C5)C4C2 [MDT-5, 4,9-diaminodiamantane]	–
